Measurements published in patent US8492374B2, “Azaazulene compounds” (Industrial Technology Research Institute, priority 2009, dated 2013).

Columns and labels:
[1] = system: MV4-11 (FLT3-ITD) cell line; assay: In vitro cell activity assay (MTT cell viability, 72 hours); format: cell-based; conditions: Homo sapiens, 72 hours at 37° C., 10,000 cells per well, read-out: IC50 against MV4-11
Experimental: Human MV4-11 (FLT3-ITD) cell line was obtained from American Tissue Culture Collection (ATCC number: CRL-9591). The cell line was cultured with RPMI 1640 containing 10% fetal bovine serum, 1 mmol/L sodium pyruvate and 10 mmol/L HEPES (pH 7.4). The cell was grown and maintained in a humidified atmosphere at 37° C. and 5% carbon dioxide.
MV4-11 cell was plated in 96-well microtiter plates (10,000 cells per well) and serial dilutions of indicated compounds were added. At the end of the incubation period (72 hours at 37° C.), cell viability was determined by a tetrazolium dye, MTT (3-(4,5-dimethylthiazol-2-yl)-2,5-diphenyl tetrazolium bromide) (Promega, Madison, Wis.). The formazan crystals were dissolved by DMSO, and the absorbance at a wavelength of 600 nm was recorded using an ELISA plate reader. IC50 values were calculated using nonlinear regression and defined as the concentration needed for a 50% reduction in absorbance of treated versus untreated control cells.

FLT-3 kinase = target: T1, FLT-3 kinase (Homo sapiens, UniProt P36888); assay: FLT-3 kinase DELFIA assay (HTScan FLT-3 Kinase Assay Kit); format: biochemical; conditions: 20 uM ATP; for inhibition at 0.1 µM: 0.1 uM compound; for inhibition at 1 µM: 1 uM compound
T1 construct: human FLT-3 (Arg571-Ser993); GST (N); purchased Cell Signaling Technology HTScan FLT-3 Kinase Assay Kit; host or cells: baculovirus expression system
T1 sequence (P36888 571-993): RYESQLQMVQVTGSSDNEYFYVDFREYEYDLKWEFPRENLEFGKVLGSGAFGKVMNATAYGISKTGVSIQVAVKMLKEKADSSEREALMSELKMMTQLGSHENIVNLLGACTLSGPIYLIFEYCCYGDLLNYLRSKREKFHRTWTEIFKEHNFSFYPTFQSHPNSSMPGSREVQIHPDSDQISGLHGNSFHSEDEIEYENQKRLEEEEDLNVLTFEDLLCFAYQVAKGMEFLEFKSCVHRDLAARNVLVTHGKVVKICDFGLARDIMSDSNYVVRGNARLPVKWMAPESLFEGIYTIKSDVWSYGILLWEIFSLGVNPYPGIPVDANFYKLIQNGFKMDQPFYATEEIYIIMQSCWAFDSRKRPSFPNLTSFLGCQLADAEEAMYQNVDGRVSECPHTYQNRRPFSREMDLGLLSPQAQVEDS
Experimental: (§1) Azaazulene Compounds of this invention were treated for their efficacy in inhibiting activities of FLT-3, c-KIT and KDR kinases by biochemical DELFIA (Dissociation Enhanced Lanthanide FIA) assays according to the procedure described below. The assays were conducted by, Division of Cell Engineering, Biomedical Engineering Research Laboratories, Industrial Technology Research Institute, Bldg. 53, 195, sec. 4, Chung Hsing Rd. Chutung, Hsinchu, Taiwan 310, R.O.C.
The FLT-3 assay was conducted following the protocol described in Protocol for HTScang FLT-3 Kinase Assay Kit (Cell Signaling Technology®).

c-KIT kinase = target: T2, c-KIT kinase (Homo sapiens, UniProt P10721); assay: c-KIT kinase DELFIA assay (HTScan c-KIT Kinase Assay Kit); format: biochemical; conditions: 20 uM ATP; for inhibition at 0.1 µM: 0.1 uM compound; for inhibition at 1 µM: 1 uM compound
T2 construct: human c-KIT (Thr544-Val976); GST (N); purchased Cell Signaling Technology HTScan c-KIT Kinase Assay Kit; host or cells: baculovirus expression system
T2 sequence (P10721 544-976): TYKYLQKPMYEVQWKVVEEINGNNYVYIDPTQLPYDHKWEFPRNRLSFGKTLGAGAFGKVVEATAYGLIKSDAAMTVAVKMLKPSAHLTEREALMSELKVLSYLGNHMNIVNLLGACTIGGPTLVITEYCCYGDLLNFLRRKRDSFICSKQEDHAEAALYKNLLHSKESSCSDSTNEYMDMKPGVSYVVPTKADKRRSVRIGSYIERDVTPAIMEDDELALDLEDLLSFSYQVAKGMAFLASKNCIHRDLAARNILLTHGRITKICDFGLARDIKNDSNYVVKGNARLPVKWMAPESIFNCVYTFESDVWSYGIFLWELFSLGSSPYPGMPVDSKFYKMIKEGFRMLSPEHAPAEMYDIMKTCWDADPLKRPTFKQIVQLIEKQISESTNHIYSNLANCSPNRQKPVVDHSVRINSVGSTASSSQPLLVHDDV
Experimental: as §1
The c-KIT assay was conducted following the protocol described in Protocol for HTScan® c-KIT Kinase Assay Kit (Cell Signaling Technology®).

IC50 [1] [nM] | inhibition at 0.1 µM (FLT-3 kinase) [%] | inhibition at 1 µM (FLT-3 kinase) [%] | inhibition at 0.1 µM (c-KIT kinase) [%] | inhibition at 1 µM (c-KIT kinase) [%] | SMILES
~1000 | 11.5 | 59.4 | 34.1 | 64.5 | O=c1[nH]c2cccccc-2c1-c1nc2ccccc2[nH]1 [Compound A1, 3-(benzimidazol-2-yl)-1-azaazulen-2-one, reference compound]
1000 to 5000 | 12.5 | 27.3 | 15.1 | 43.7 | Nc1ncnc2[nH]c(-c3c4cccccc-4[nH]c3=O)nc12 [Compound B11]
428 | 20.1 | 63 | 10.8 | 55.4 | CN(C)CCCN(C)c1ccc2[nH]c(-c3c4cccccc-4[nH]c3=O)nc2c1 [Compound B21]
796 | 23.1 | 71.4 | 56.7 | 82.9 | O=c1[nH]c2cccccc-2c1-c1nc2cc(N3CCCN(CCF)CC3)ccc2[nH]1 [Compound B80]
88.6 | 39.8 | 91.6 | 49.6 | 96.2 | O=c1[nH]c2cccccc-2c1-c1nc2cc(N3CCCN(Cc4cccnc4)CC3)ccc2[nH]1 [Compound B87]
852 | 17 | 52.3 | 12.3 | 79.1 | O=c1[nH]c2cccccc-2c1-c1nc2cc(N3CCCN(c4ccccn4)CC3)ccc2[nH]1 [Compound B94]
100 to 500 | 8.8 | 44.6 | 40.1 | 87.2 | Cc1cc(N2CCCN(c3ccc4[nH]c(-c5c6cccccc-6[nH]c5=O)nc4c3)CC2)nc(N(C)C)n1 [Compound B97]
1000 to 5000 | 9.5 | 21.3 | – | – | CN1CCN(S(=O)(=O)c2ccc3[nH]c(-c4c5cccccc-5[nH]c4=O)nc3c2)CC1 [Compound B112]
1000 to 5000 | 10 | 16.3 | – | – | O=C(c1ccccc1)c1ccc2[nH]c(-c3c4cccccc-4[nH]c3=O)nc2c1 [Compound B114]
64.1 | 57.9 | 76.3 | 66.6 | 36.8 | O=C(Nc1ccc(Cl)c(C(F)(F)F)c1)Nc1ccc2[nH]c(-c3c4cccccc-4[nH]c3=O)nc2c1 [Compound B118]
1000 to 5000 | 7.9 | 7.3 | – | – | O=C(Nc1ccc2[nH]c(-c3c4cccccc-4[nH]c3=O)nc2c1)Nc1ccccc1C(F)(F)F [Compound B131]
1000 to 5000 | 21 | 70.8 | – | – | O=C(Nc1ccc2[nH]c(-c3c4cccccc-4[nH]c3=O)nc2c1)Nc1ccc(Cl)cc1C(F)(F)F [Compound B136]

The remaining lines, values behind:

SMILES | IC50 [1] [nM] | inhibition at 0.1 µM (FLT-3 kinase) [%] | inhibition at 1 µM (FLT-3 kinase) [%] | inhibition at 0.1 µM (c-KIT kinase) [%] | inhibition at 1 µM (c-KIT kinase) [%]
COc1ccc2nc(-c3c4cccccc-4[nH]c3=O)cn2c1 [Compound B14] | 1000 to 5000 | – | 9.6 | 20.1 | 39.4
O=c1[nH]c2cccccc-2c1-c1nc2cccnc2[nH]1 [Compound B15] | 1000 to 5000 | 8.6 | 18.1 | 8.5 | 43.1
C[N+]1([O-])CC[N+]([O-])(c2ccc3[nH]c(-c4c5cccccc-5[nH]c4=O)nc3c2)CC1 (stereo not drawn) [Compound B70] | ~1000 | 11.1 | 27.5 | 40.5 | 86.6
O=c1[nH]c2cccccc-2c1-c1nc2cc(N3CCCNCC3)ccc2n1CCCF [Compound B81] | 208 | 9.9 | 21 | 28.9 | 17.2
O=c1[nH]c2cccccc-2c1-c1nc2cc(N3CCCN(CCCF)CC3)ccc2[nH]1 [Compound B82] | 18.6 | 30.3 | 81.6 | 31 | 91.1
O=c1[nH]c2cccccc-2c1-c1nc2cc(N3CCCN(CCCF)CC3)ccc2n1CCCF [Compound B83] | 227 | 11 | 21.2 | – | 19.7
O=CN1CCCN(c2ccc3[nH]c(-c4c5cccccc-5[nH]c4=O)nc3c2)CC1 [Compound B88] | 144 | 20.6 | 62.4 | 47.2 | 89.2
O=c1[nH]c2cccccc-2c1-c1nc2cc(N3CCCN(c4ncccc4[N+](=O)[O-])CC3)ccc2[nH]1 [Compound B95] | 771 | 14.4 | 37.7 | 48.3 | 82.6
CCOCC1CCN(c2ccc3[nH]c(-c4c5cccccc-5[nH]c4=O)nc3c2)CC1 [Compound B109] | ~1000 | 17.3 | 35.2 | – | –
O=c1[nH]c2cccccc-2c1-c1nc2cc(N3CCOCC3)ccc2[nH]1 [Compound B111] | 169 | 24.5 | 75 | – | –
CN1CCCN(S(=O)(=O)c2ccc3[nH]c(-c4c5cccccc-5[nH]c4=O)nc3c2)CC1 [Compound B113] | 100 to 500 | 14.8 | 42 | – | –
O=c1[nH]c2cccccc-2c1-c1nc2cc(-n3ccnc3)ccc2[nH]1 [Compound B115] | 306 | 25.4 | 72.7 | – | –
O=C(Nc1ccc2[nH]c(-c3c4cccccc-4[nH]c3=O)nc2c1)Nc1cc(C(F)(F)F)ccc1F [Compound B119] | 100 to 500 | 32 | 44.6 | – | –
O=C(Nc1ccc2[nH]c(-c3c4cccccc-4[nH]c3=O)nc2c1)Nc1cc(F)ccc1F [Compound B120] | 676 | 10.2 | 10.1 | – | –
O=C(Nc1ccc(F)c(Cl)c1)Nc1ccc2[nH]c(-c3c4cccccc-4[nH]c3=O)nc2c1 [Compound B130] | 1000 to 5000 | 8.6 | 24 | – | –
O=C(Nc1cccc(C(F)(F)F)c1)Nc1ccc2[nH]c(-c3c4cccccc-4[nH]c3=O)nc2c1 [Compound B132] | 580 | 47.5 | 72.4 | – | –
O=C(Nc1ccc(C(F)(F)F)cc1)Nc1ccc2[nH]c(-c3c4cccccc-4[nH]c3=O)nc2c1 [Compound B133] | 100 to 500 | 30.5 | 53.3 | – | –
O=C(Nc1cc(C(F)(F)F)cc(C(F)(F)F)c1)Nc1ccc2[nH]c(-c3c4cccccc-4[nH]c3=O)nc2c1 [Compound B134] | 670 | 36.8 | 57.3 | – | –
O=C(Nc1ccc2[nH]c(-c3c4cccccc-4[nH]c3=O)nc2c1)Nc1cc(C(F)(F)F)ccc1Cl [Compound B135] | 626 | 41.4 | 62 | – | –
COc1ccccc1NC(=O)Nc1ccc2[nH]c(-c3c4cccccc-4[nH]c3=O)nc2c1 [Compound B137] | 50 to 100 | 14.3 | 19 | – | –
COc1cccc(NC(=O)Nc2ccc3[nH]c(-c4c5cccccc-5[nH]c4=O)nc3c2)c1 [Compound B138] | 718 | 35.6 | 58.1 | – | –
